In US11111251B2, “Positive allosteric modulators of the muscarinic acetylcholine receptor M1” (Vanderbilt University, priority 2016, dated 2021):

Target: T1, human mAChR M1 (Homo sapiens, UniProt P11229)
T1 sequence (P11229 1-460): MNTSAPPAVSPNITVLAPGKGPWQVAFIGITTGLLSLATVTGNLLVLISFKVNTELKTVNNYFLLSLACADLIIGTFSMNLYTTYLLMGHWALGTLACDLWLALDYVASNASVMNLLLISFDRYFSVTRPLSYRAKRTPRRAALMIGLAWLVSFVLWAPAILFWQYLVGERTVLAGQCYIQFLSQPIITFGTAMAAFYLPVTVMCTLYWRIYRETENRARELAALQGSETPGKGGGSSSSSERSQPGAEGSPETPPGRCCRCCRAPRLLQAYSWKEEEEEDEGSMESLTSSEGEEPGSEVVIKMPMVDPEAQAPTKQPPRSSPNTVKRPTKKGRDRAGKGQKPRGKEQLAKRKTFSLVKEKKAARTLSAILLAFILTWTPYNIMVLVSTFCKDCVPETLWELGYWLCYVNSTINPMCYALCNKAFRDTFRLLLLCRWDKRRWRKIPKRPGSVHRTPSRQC
Test: mAChR M1 cell-based functional assay: calcium mobilization, positive allosteric modulator mode (increase in EC20 acetylcholine response)
Settings: not given
Text: a. Cell Lines Expressing Muscarinic Acetylcholine Receptors
Chinese hamster ovary (CHO-K1) cells stably expressing rat (r)M1 were purchased from the American Type Culture Collection and cultured according to their indicated protocol. CHO cells stably expressing human (h)M2, hM3, and hM5 were described previously (Levey, et al., 1991); hMi and hM4 cDNAs were purchased from Missouri S&T cDNA Resource; rM4 cDNA was provided by T. I. Bonner (National Institutes of Health, Bethesda, Md.). rM2 and rM3 were cloned from a rat brain cDNA library and sequence verified. hMi, rM2, rM3, hM4, and rM4 cDNAs were used to stably transfect CHO-K1 cells purchased from the American Type Culture Collection using Lipofectamine2000. To make stable rM2, hM2, rM3, hM4, and rM4 cell lines for use in calcium mobilization assays, these cells also were stably transfected with a chimeric G-protein (Gqi5) (provided by B. R. Conklin, University of California, San Francisco) using Lipofectamine 2000. rMi, hMi, rM3, hM3, rM5, and hM5 cells were grown in Ham's F-12 medium containing 10% heat-inactivated fetal bovine serum (FBS), 20 mM HEPES, and 50 μg/mL G418 sulfate. rM2-Gqi5, hM2-Gqi5, and hM4-Gqi5 cells were grown in the same medium also containing 500 μg/mL Hygromycin B. Stable rM4-Gqi5 cells were grown in DMEM containing 10% heat-inactivated FBS, 20 mM HEPES, 400 μg/mL G418 sulfate, and 500 μg/mL Hygromycin B.
b. Cell-Based Functional Assay of Muscarinic Acetylcholine Receptor Activity
For high throughput measurement of agonist-evoked increases in intracellular calcium, CHO-K1 cells stably expressing muscarinic receptors were plated in growth medium lacking G418 and hygromycin at 15,000 cells/20 μL/well in Greiner 384-well black-walled, tissue culture (TC)-treated, clear-bottom plates (VWR). Cells were incubated overnight at 37° C. and 5% CO2. The next day, cells were washed using an ELX 405 (BioTek) with four washes (80 μL) of assay buffer then aspirated to 20 μL. Next, 20 μL of 16 μM Fluo-4/acetoxymethyl ester (Invitrogen, Carlsbad, Calif.) prepared as a 2.3 mM stock in DMSO and mixed in a 1:1 ratio with 10% (w/v) Pluronic F-127 and diluted in assay buffer was added to the wells and the cell plates were incubated for 50 min at 37° C. and 5% CO2. Dye was removed by washing with the ELX 405 (four […], washes of assay buffer) then aspirated to 20 μL. Compound master plates were formatted in an 11 point CRC format (1:3 dilutions) in 100% DMSO with a starting concentration of 10 mM using the BRAVO liquid handler (Agilent). Test compound CRCs were then transferred to daughter plates (240 nL) using the Echo acoustic plate reformatter (Labcyte, Sunnyvale, Calif.) and then diluted into assay buffer (40 μL) to a 2× stock using a Thermo Fisher Combi (Thermo Fisher Scientific, Waltham, Mass.).
Calcium flux was measured using the Functional Drug Screening System (FDSS) 6000 (Hamamatsu Corporation, Tokyo, Japan) as an increase in the fluorescent static ratio. Compounds were applied to cells (20 μL, 2×) using the automated system of the FDSS 6000 at 4 s into the 300 s protocol and the data were collected at 1 Hz. At 144 s into the 300s protocol, 10 μL of an EC20 concentration of the muscarinic receptor agonist acetylcholine was added (5×), followed by the addition of 12 μL an EC80 concentration of acetylcholine at the 230 s time point (5×). Agonist activity was analyzed as a concentration-dependent increase in calcium mobilization upon compound addition. Positive allosteric modulator activity was analyzed as a concentration-dependent increase in the EC20 acetylcholine response. Antagonist activity was analyzed as a concentration-dependent decrease in the EC80 acetylcholine response. Concentration-response curves were generated using a four-parameter logistical equation in XLfit curve fitting software (IDBS, Bridgewater, N.J.) for Excel (Microsoft, Redmond, Wash.) or Prism (GraphPad Software, Inc., San Diego, Calif.).

Row | EC50 | Compound
1 | 0.087 µM | Cc1ccc(Cc2cc(C(=O)N[C@H]3CCCC[C@@H]3O)nc3ccsc23)cn1 [Compound 1, N-((1S,2S)-2-Hydroxycyclohexyl)-7-((6-methylpyridin-3-yl)methyl)thieno[3,2-b]pyridine-5-carboxamide]
2 | > 10 µM | Cc1ccc(Oc2cc(C(=O)NC3CC(F)C3)nc3ccsc23)cn1 (centres unmarked) [Compound 17, N-(3-fluorocyclobutyl)-7-[(6-methyl-3-pyridyl)oxy]thieno[3,2-b]pyridine-5-carboxamide]

Same assay, conditions: Table 1; mAChR M1 cell-based functional assay, PAM mode; species not given; read-out: EC50

Row | EC50 | Compound
3 | 2.15 µM | Cn1cc(-c2ccc(Oc3cc(C(=O)N[C@H]4CCCC[C@@H]4O)nc4ccsc34)c(F)c2)cn1 [Compound 2, 7-[2-fluoro-4-(1-methylpyrazol-4-yl)phenoxy]-N-[(1S,2S)-2-hydroxycyclohexyl]thieno[3,2-b]pyridine-5-carboxamide]
4 | 4.99 µM | Cn1cc(-c2ccc(Oc3cc(C(=O)NC4CCOCC4)nc4ccsc34)c(F)c2)cn1 [Compound 4, 7-[2-fluoro-4-(1-methylpyrazol-4-yl)phenoxy]-N-tetrahydropyran-4-yl-thieno[3,2-b]pyridine-5-carboxamide]
5 | > 10 µM | Cn1cc(-c2ccc(Oc3cc(C(=O)NC4CC[C@H]4O)nc4ccsc34)c(F)c2)cn1 (stereo partly drawn) [Compound 5, 7-[2-fluoro-4-(1-methylpyrazol-4-yl)phenoxy]-N-[(2R)-2-hydroxycyclobutyl]thieno[3,2-b]pyridine-5-carboxamide]
6 | > 10 µM | Cn1cc(-c2ccc(Oc3cc(C(=O)N[C@H]4CCC[C@@H]4O)nc4ccsc34)c(F)c2)cn1 [Compound 6]
7 | 3.26 µM | Cn1cc(-c2ccc(Oc3cc(C(=O)N[C@H]4CCOC[C@@H]4O)nc4ccsc34)c(F)c2)cn1 [Compound 7]
8 | 7.79 µM | Cn1cc(-c2ccc(Oc3cc(C(=O)N[C@H]4COCC[C@@H]4O)nc4ccsc34)c(F)c2)cn1 [Compound 8]
9 | > 10 µM | Cn1cc(-c2ccc(Oc3cc(C(=O)N[C@H]4CCCCC[C@@H]4O)nc4ccsc34)c(F)c2)cn1 [Compound 9]
10 | 4.12 µM | Cn1cc2c(-c3ccc(Oc4cc(C(=O)N[C@H]5CCOC[C@@H]5O)nc5ccsc45)c(F)c3)cccc2n1 [Compound 13, 7-[2-fluoro-4-(2-methylindazol-4-yl)phenoxy]-N-[(3R,4S)-3-hydroxytetrahydropyran-4-yl]thieno[3,2-b]pyridine-5-carboxamide]
11 | 4.25 µM | Cn1cc2c(-c3ccc(Oc4cc(C(=O)N[C@H]5COCC[C@@H]5O)nc5ccsc45)c(F)c3)cccc2n1 [Compound 14]
12 | > 10 µM | Cc1ccc(Oc2cc(C(=O)N[C@@H]3CC[C@H]3O)nc3ccsc23)cn1 [Compound 16]
13 | > 10 µM | Cc1ccc(Oc2cc(C(=O)N[C@H]3CCC[C@@H]3O)nc3ccsc23)cn1 [Compound 18, N-[(1S,2S)-2-hydroxycyclopentyl]-7-[(6-methyl-3-pyridyl)oxy]thieno[3,2-b]pyridine-5-carboxamide]
14 | > 10 µM | Cc1ccc(Oc2cc(C(=O)NC3CCCCC3)nc3ccsc23)cn1 [Compound 19, N-cyclohexyl-7-[(6-methyl-3-pyridyl)oxy]thieno[3,2-b]pyridine-5-carboxamide]
15 | > 10 µM | Cc1ccc(Oc2cc(C(=O)NC3CCOCC3)nc3ccsc23)cn1 [Compound 20, 7-[(6-methyl-3-pyridyl)oxy]-N-tetrahydropyran-4-yl-thieno[3,2-b]pyridine-5-carboxamide]
16 | 1.14 µM | Cc1ccc(Oc2cc(C(=O)N[C@H]3CCCC[C@@H]3O)nc3ccsc23)cn1 [Compound 21, N-[(1S,2S)-2-hydroxycyclohexyl]-7-[(6-methyl-3-pyridyl)oxy]thieno[3,2-b]pyridine-5-carboxamide]
17 | 1.79 µM | Cc1ccc(Oc2cc(C(=O)N[C@H]3CCOC[C@@H]3O)nc3ccsc23)cn1 [Compound 22, N-[(3R,4S)-3-hydroxytetrahydropyran-4-yl]-7-[(6-methyl-3-pyridyl)oxy]thieno[3,2-b]pyridine-5-carboxamide]
18 | > 10 µM | Cc1ccc(Oc2cc(C(=O)N[C@H]3COCC[C@@H]3O)nc3ccsc23)cn1 [Compound 23, N-[(3S,4S)-4-hydroxytetrahydropyran-3-yl]-7-[(6-methyl-3-pyridyl)oxy]thieno[3,2-b]pyridine-5-carboxamide]
19 | > 10 µM | CO[C@H]1CCCC[C@@H]1NC(=O)c1cc(Oc2ccc(C)nc2)c2sccc2n1 [Compound 24, N-[(1S,2S)-2-methoxycyclohexyl]-7-[(6-methyl-3-pyridyl)oxy]thieno[3,2-b]pyridine-5-carboxamide]
20 | 0.75 µM | Cc1ccc(Oc2cc(C(=O)N[C@H]3CCCCC[C@@H]3O)nc3ccsc23)cn1 [Compound 25, N-[(1S,2S)-2-hydroxycycloheptyl]-7-[(6-methyl-3-pyridyl)oxy]thieno[3,2-b]pyridine-5-carboxamide]
21 | > 10 µM | Cc1ccc(Oc2cc(C(=O)NC(CO)c3ccccc3)nc3ccsc23)cn1 (centres unmarked) [Compound 27, N-(2-hydroxy-1-phenyl-ethyl)-7-[(6-methyl-3-pyridyl)oxy]thieno[3,2-b]pyridine-5-carboxamide]
22 | > 10 µM | Cc1ccc(Oc2cc(C(=O)NC3CCCNC3=O)nc3ccsc23)cn1 (centres unmarked) [Compound 29, 7-[(6-methyl-3-pyridyl)oxy]-N-(2-oxo-3-pipendyl)thieno[3,2-b]pyridine-5-carboxamide]
23 | > 10 µM | Cc1ccc(Oc2cc(C(=O)NC(CO)C3CC3)nc3ccsc23)cn1 (centres unmarked) [Compound 30, N-(1-cyclopropyl-2-hydroxy-ethyl)-7-[(6-methyl-3-pyridyl)oxy]thieno[3,2-b]pyridine-5-carboxamide]
24 | > 10 µM | Cc1ccc(Oc2cc(C(=O)NCC(O)C(F)(F)F)nc3ccsc23)cn1 (centres unmarked) [Compound 31, 7-[(6-methyl-3-pyridyl)oxy]-N-(3,3,3-trifluoro-2-hydroxy-propyl)thieno[3,2-b]pyridine-5-carboxamide]
25 | > 10 µM | Cc1ccc(Oc2cc(C(=O)NCC(C)(C)O)nc3ccsc23)cn1 [Compound 32, N-(2-hydroxy-2-methyl-propyl)-7-[(6-methyl-3-pyridyl)oxy]thieno[3,2-b]pyridine-5-carboxamide]
26 | > 10 µM | COCCNC(=O)c1cc(Oc2ccc(C)nc2)c2sccc2n1 [Compound 33, N-(2-methoxyethyl)-7-[(6-methyl-3-pyridyl)oxy]thieno[3,2-b]pyridine-5-carboxamide]
27 | > 10 µM | Cc1ccc(Oc2cc(C(=O)NC(C)C(C)(C)CO)nc3ccsc23)cn1 (centres unmarked) [Compound 34, N-(3-hydroxy-1,2,2-trimethyl-propyl)-7-[(6-methyl-3-pyridyl)oxy]thieno[3,2-b]pyridine-5-carboxamide]

Same assay, conditions: Table 2; human M1

Row | Compound | Human M1 Emax (%)
28 | 7-[[6-(1-methylpyrazol-4-yl)-3-pyridyl]methyl]-N-tetrahydropyran-4-yl-thieno[3,2-b]pyridine-5-carboxamide [Compound 301] | 71.87%

Same assay, conditions: Table 2; human M1; read-out: Human M1 EC50

Row | Compound | EC50
29 | 7-[[6-(1-methylpyrazol-4-yl)-3-pyridyl]methyl]-N-tetrahydropyran-4-yl-thieno[3,2-b]pyridine-5-carboxamide [Compound 301] | 0.0423 µM
